Format in all cases: in vivo
Assay [1] relates to summer wheat (TRZAS; cv. Triso). Put plainly: Relative action (efficacy code): reduction of damage by mesosulfuron-methyl on summer wheat. Details: key: 0: no reduction in damage (appearance corresponding to the herbicide control); 1: slight reduction in damage; 2: distinct reduction in damage; 3: significant reduction in damage; 4: complete reduction in damage (appearance corresponding to the untreated control). The conditions noted are these: then mesosulfuron-methyl 40-60 g/ha, visual, 9-13 days after application. As to the method: 2.3 Relative Action of Selected Compounds of the Invention Using the Example of Reduction of Damage by Mesosulfuron-Methyl on Summer Wheat (TRZAS) The seeds of the crop plants to be treated are laid out in sandy loam in plastic pots (diameter ˜4 cm), covered with soil and grown in a greenhouse under good conditions for germination and growth. The trial plants were treated at the early leaf stage (BBCH10—BBCH12). In the course of this, the inventive compounds of the general formula (I) formulated in the form of wettable powders (WP) were sprayed onto the above-ground parts of the plants as an aqueous suspension with a water application rate corresponding to 800 l/ha with addition of wetting agent (e.g. 0.2% Genapol-LRO or 0.2% Mero) in the specified dose. This was followed by the application of the herbicide. For this purpose, mesosulfuron-methyl, formulated in the form of water-dispersible granules (WG), was sprayed onto the above-ground parts of the plants in the form of an aqueous dispersion with a water application rate corresponding to 800 l/ha with addition of wetting agent (e.g. 0.2% Genapol-LRO or 1 l/ha Biopower) in a dose of 40-60 g/ha. The dose of the herbicide was chosen here such that it causes visually apparent damage (min. 30%, max. 75%) compared to untreated crop plants at the evaluation time on a control group of crop plants without safener treatment that were included in the same trial. After application, the plants were cultivated under good growth conditions in a greenhouse. 9-13 days after application, the efficacy of the test compounds was assessed visually. For this purpose, the appearance of the plants treated with the test compound and herbicide was compared to the corresponding herbicide controls (without safener; with clearly visible damage) and the untreated controls (without damage). The damage-reducing effect of the test compounds was expressed here in graded efficacy codes according to the following scheme: • 0: no reduction in damage (appearance corresponding to the herbicide control) • 1: slight reduction in damage • 2: distinct reduction in damage • 3: significant reduction in damage • 4: complete reduction in damage (appearance corresponding to the untreated control) The trials show clear efficacy of the substances of the invention with regard to the reduction in damage to the summer wheat crop plant (TRZAS; cv. Triso) caused by the herbicide mesosulfuron-methyl: […]

The subject of assay [2] is summer barley (HORVS; cv. Montoya). Kind of assay: Relative action (efficacy code): reduction of damage by mesosulfuron-methyl on summer barley. Details: key: 0: no reduction in damage (appearance corresponding to the herbicide control); 1: slight reduction in damage; 2: distinct reduction in damage; 3: significant reduction in damage; 4: complete reduction in damage (appearance corresponding to the untreated control). The note with it: then mesosulfuron-methyl 40-60 g/ha, visual, 9-13 days after application. As to the method:
2.4 Relative Action of Selected Compounds of the Invention Using the Example of Reduction of Damage by Mesosulfuron-Methyl on Summer Barley (HORVS) The seeds of the crop plants to be treated are laid out in sandy loam in plastic pots (diameter ˜4 cm), covered with soil and grown in a greenhouse under good conditions for germination and growth. The trial plants were treated at the early leaf stage (BBCH10—BBCH12). In the course of this, the inventive compounds of the general formula (I) formulated in the form of wettable powders (WP) were sprayed onto the above-ground parts of the plants as an aqueous suspension with a water application rate corresponding to 800 l/ha with addition of wetting agent (e.g. 0.2% Genapol-LRO or 0.2% Mero) in the specified dose. This was followed by the application of the herbicide. For this purpose, mesosulfuron-methyl, formulated in the form of water-dispersible granules (WG), was sprayed onto the above-ground parts of the plants in the form of an aqueous dispersion with a water application rate corresponding to 800 l/ha with addition of wetting agent (e.g. 0.2% Genapol-LRC) or 1 l/ha Biopower) in a dose of 40-60 g/ha. The dose of the herbicide was chosen here such that it causes visually apparent damage (min. 30%, max. 75%) compared to untreated crop plants at the evaluation time on a control group of crop plants without safener treatment that were included in the same trial. After application, the plants were cultivated under good growth conditions in a greenhouse. 9-13 days after application, the efficacy of the test compounds was assessed visually. For this purpose, the appearance of the plants treated with the test compound and herbicide was compared to the corresponding herbicide controls (without safener; with clearly visible damage) and the untreated controls (without damage). The damage-reducing effect of the test compounds was expressed here separately for 2 repeats in graded efficacy codes according to the following scheme: • 0: no reduction in damage (appearance corresponding to the herbicide control) • 1: slight reduction in damage • 2: distinct reduction in damage • 3: significant reduction in damage • 4: complete reduction in damage (appearance corresponding to the untreated control) The trials show clear efficacy of the substances of the invention with regard to the reduction in damage to the summer barley crop plant (HORVS; cv. Montoya) caused by the herbicide mesosulfuron-methyl: […]

For assay [3], the system named is summer wheat (TRZAS; cv. Triso). Kind of assay: Absolute action: reduction of damage by mesosulfuron-methyl on summer wheat, greenhouse post-emergence. The conditions noted are these: safener 250 g/ha. In a few lines:
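Safener compounds (WP, aqueous suspension, 800 l/ha, 0.2% wetting agent) sprayed post-emergence on wheat at BBCH10–12, followed by mesosulfuron-methyl WG at 20 g/ha. Greenhouse-grown; damage scored visually 0–100% versus untreated plants 14–21 days after application, averaged over 2–3 repeats.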

For assay [4], the system named is summer barley (HORVS; cv. Montoya). Kind of assay: Absolute action: reduction of damage by mesosulfuron-methyl on summer barley, greenhouse post-emergence. The conditions noted are these: safener 250 g a.i./ha. Put shortly: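 Greenhouse barley at BBCH10–12 was sprayed with the WP-formulated compound at 800 l/ha plus 0.2% wetting agent, then with mesosulfuron-methyl WG at 20 g/ha. Damage was scored visually 14–21 days later on a 0–100% scale versus untreated plants. Scores are the mean of 2–3 repeats.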

[5] abbreviates: safener dose 100 (unit not given).
Where [6] appears, read: safener dose 500 (unit not given).
[7] abbreviates: mesosulfuron-methyl 20 g/ha, damage without minus with safener.
Where [8] appears, read: then mesosulfuron-methyl 20 g/ha, visual 0-100% scale, 14-21 days after application.

As to `O=C(O)COc1nc(-c2ccccc2)n(-c2c(F)cccc2F)n1` [I.3-43], the “Efficacy of the safener (efficacy code)” value in assay [1] (setting [5]), in assay [1] (setting [6]), in assay [2] (safener 100 g/ha) and in assay [2] (safener 500 g/ha) was 2 throughout.

Turning to `COC(=O)COc1nc(-c2ccc(F)cc2F)n(-c2ccc(Cl)cc2)n1` [I.40-7, Methyl {[1-(4-chlorophenyl)-5-(2,4-difluorophenyl)-1H-1,2,4-triazol-3-yl]oxy}acetate], the “Efficacy of the safener (efficacy code)” value in assay [1] (setting [5]) is given as 4; in assay [1] (setting [6]), 4; in assay [2] (safener 100 g/ha) it was 2; in assay [2] (safener 500 g/ha) it was 4.

Regarding `COC(=O)COc1nc(-c2ccc(F)cc2F)n(-c2ccc(F)cc2Cl)n1` [I.40-48], the “Efficacy of the safener (efficacy code)” value in assay [1] (setting [5]) and in assay [2] (safener 100 g/ha) was 2 throughout.

Consider `COC(=O)COc1nc(-c2ccc(F)cc2F)n(-c2ccc(Cl)cc2F)n1` [I.40-49], for which the “Efficacy of the safener (efficacy code)” value in assay [1] (setting [5]), in assay [1] (setting [6]), in assay [2] (safener 100 g/ha) and in assay [2] (safener 500 g/ha) was 4 each time.

For the molecule `CCOC(=O)COc1nc(-c2ccc(F)cc2F)n(-c2ccc(Cl)cc2F)n1` [I.41-49], the “Efficacy of the safener (efficacy code)” value in assay [1] (setting [5]) and in assay [2] (safener 100 g/ha) was 2 each time.

For `O=C(O)COc1nc(-c2ccc(F)cc2F)n(-c2c(F)cccc2F)n1` [I.42-43], the “Efficacy of the safener (efficacy code)” value in assay [1] (setting [5]), in assay [1] (setting [6]), in assay [2] (safener 100 g/ha) and in assay [2] (safener 500 g/ha) was 2 throughout.

In the case of `O=C(O)COc1nc(-c2ccc(F)cc2F)n(-c2ccc(Cl)cc2F)n1` [I.42-49], the “Efficacy of the safener (efficacy code)” value is 2 in assay [1] (setting [5]), 2 in assay [1] (setting [6]), 2 in assay [2] (safener 100 g/ha) and 3 in assay [2] (safener 500 g/ha).

Take `O=C(O)COc1nc(-c2ccc(Cl)cc2F)n(-c2c(F)cccc2F)n1` [I.48-43]: the “Efficacy of the safener (efficacy code)” value in assay [1] (setting [6]) and in assay [2] (safener 500 g/ha) was 2 each time.

For the molecule `O=C(O)COc1nc(-c2cc(F)cc(F)c2)n(-c2ccc(F)cc2)n1` [I.54-4], in assay [3] (setting [7]), the “Absolute reduction in herbicide damage (damage without safener minus damage with safener)” value worked out at 23%. The “Herbicide damage with compound of the formula (I)” value in assay [3] (setting [8]) is 20%. Moreover, in assay [4] (setting [7]), the “Absolute reduction in damage (difference)” value turned out to be 23%. Moreover, the “Herbicide damage with compound of the formula (I) (%)” value in assay [4] (setting [8]) worked out at 37%.

As to `COC(=O)COc1nc(-c2c(F)cccc2F)n(-c2ccc(Cl)cc2F)n1` [I.55-49], the “Efficacy of the safener (efficacy code)” value in assay [1] (setting [5]), in assay [1] (setting [6]), in assay [2] (safener 100 g/ha) and in assay [2] (safener 500 g/ha) was 2 throughout.

`O=C(O)COc1nc(-c2c(F)cccc2F)n(-c2c(F)cccc2F)n1` [I.57-43]: the “Efficacy of the safener (efficacy code)” value in assay [1] (setting [6]) and in assay [2] (safener 500 g/ha) was 2 each time.

For the molecule `O=C(O)COc1nc(-c2c(F)cccc2F)n(-c2ccc(Cl)cc2F)n1` [I.57-49], the “Efficacy of the safener (efficacy code)” value in assay [2] (safener 100 g/ha) and in assay [2] (safener 500 g/ha) was 2 throughout.

As for `COC(=O)CCOC(=O)COc1nc(-c2ccc(Cl)cc2Cl)n(-c2ccc(Cl)cc2F)n1` [I.61-49, Methyl 3-(2-{[1-(4-chloro-2-fluorophenyl)-5-(2,4-dichlorophenyl)-1H-1,2,4-triazol-3-yl]oxy}acetoxy)propanoate], the “Efficacy of the safener (efficacy code)” value in assay [1] (setting [5]) and in assay [2] (safener 100 g/ha) was 2 throughout.

With `O=C(COc1nc(-c2ccc(F)cc2F)n(-c2ccc(Cl)cc2F)n1)OCC1CCOC1` (stereo not shown) [I.63-49], the “Efficacy of the safener (efficacy code)” value in assay [1] (setting [5]) and in assay [2] (safener 100 g/ha) was 2 each time.

`CCCCOC(=O)COc1nc(-c2ccc(F)cc2F)n(-c2ccc(Cl)cc2F)n1` [I.66-49]: the “Efficacy of the safener (efficacy code)” value in assay [1] (setting [5]) and in assay [2] (safener 100 g/ha) was 2 each time.

`COCCOC(=O)COc1nc(-c2ccc(F)cc2F)n(-c2ccc(F)cc2Cl)n1` [I.67-48]: the “Efficacy of the safener (efficacy code)” value in assay [1] (setting [5]) and in assay [2] (safener 100 g/ha) was 2 each time.

As for `COCCOC(=O)COc1nc(-c2ccc(F)cc2F)n(-c2ccc(Cl)cc2F)n1` [I.67-49], the “Efficacy of the safener (efficacy code)” value in assay [1] (setting [5]), in assay [1] (setting [6]), in assay [2] (safener 100 g/ha) and in assay [2] (safener 500 g/ha) was 2 in each case.

In the case of `CCOC(=O)CCOC(=O)COc1nc(-c2ccc(F)cc2F)n(-c2ccc(Cl)cc2F)n1` [I.69-49], the “Efficacy of the safener (efficacy code)” value in assay [1] (setting [5]) and in assay [2] (safener 100 g/ha) was 2 throughout.
